Data reported in US10730885B1, “Coumarin derivatives” (KING SAUD UNIVERSITY, priority 2019, dated 2020).
≈ marks a conversion by molar mass, not a printed value. Like-named read-outs stand apart in the source and are kept apart here.

Experiments:
[1] = test system: Candida albicans NRRL Y-477; assay: Agar well diffusion, primary antimicrobial screening; type: cell-based; conditions: for zone of inhibition at 10000 µg/mL: Candida albicans, NRRLY477, C. albicans NRRL Y-477, 100 μL of 10 mg/ml in DMSO, 24 h, read-out: Inhibition Diameter Zone CA; for antifungal activity compared with reference drug: C. albicans
Source text: (§1) The newly synthesized compounds were individually tested for their in vitro antimicrobial activity against the standard bacteria strains of American Type Culture Collection (ATCC), namely, Staphylococcus aureus ATCC 29213, Bacillus subtilis ATCC 6633, Bacillus megaterium ATCC 9885 (Gram-positive), Escherichia coli ATCC 2592 and Pseudomonas aeruginosa ATCC 27953 (Gram-negative). In addition, they were microbiologically tested against the locally isolated Saccharomyces cerevisiae (yeast) and the standard strain of Agricultural Research Service Culture Collection (NRRL) of the yeast like pathogenic fungus Candida albicans NRRL Y-477. The primary screening was carried out using the agar well diffusion method using nutrient agar (NA) medium and Sabourand dextrose agar (SDA) medium for pathological tested bacteria and yeast, respectively.
(§2) Antimicrobial tests were carried out by the agar well diffusion method using 100 μL of suspension containing 1×10^8 CFU/mL of pathological tested bacteria and 1×10^6 CFU/ml of yeast spread on NA and SDA, respectively. After the media was cooled and solidified, wells (10 mm in diameter) were made in the solidified agar and loaded with 100 μL of tested compound solution prepared by dissolving 10 mg of the chemical compound in one ml of dimethyl sulfoxide (DMSO). The inculcated plates were then incubated for 24 h at 37° C. for bacteria and yeast. Negative controls were prepared using DMSO employed for dissolving the tested compound. Ciprofloxacin (10 mg/ml) and ketoconazole (10 mg/ml) were used as standard for antibacterial and antifungal activity, respectively. After incubation time, antimicrobial activity was evaluated by measuring the zone of inhibition against the test organisms and compared with that of the standard. Antimicrobial activities were expressed as inhibition diameter zones in millimeters (mm). The experiment was carried out in triplicate and the average zone of inhibition was calculated.

[2] = test system: Escherichia coli ATCC 2592; assay: as above; type: cell-based; conditions: for zone of inhibition at 10000 µg/mL: Escherichia coli, ATCC2592, E. coli ATCC 2592, 100 μL of 10 mg/ml in DMSO, 24 h, read-out: Inhibition Diameter Zone EC; for antibacterial activity compared with ciprofloxacin: E. coli
Source text: as §1, §2

[3] = test system: Bacillus megaterium ATCC 9885; assay: as above; type: cell-based; conditions: for zone of inhibition at 10000 µg/mL: Priestia megaterium, ATCC9885, B. megaterium ATCC 9885, 100 μL of 10 mg/ml in DMSO, 24 h, read-out: Inhibition Diameter Zone BM; for antibacterial activity compared with ciprofloxacin: B. megaterium
Source text: as §1, §2

[4] = test system: Saccharomyces cerevisiae (local isolate); assay: as above; type: cell-based; conditions: for zone of inhibition at 10000 µg/mL: Saccharomyces cerevisiae, 24 h, read-out: Inhibition Diameter Zone SC; for antimicrobial activity compared with ketoconazole: S. cerevisiae
Source text: as §1, §2

[5] = test system: Bacillus subtilis ATCC 6633; assay: as above; type: cell-based; conditions: for zone of inhibition at 10000 µg/mL: Bacillus subtilis, ATCC6633, B. subtilis ATCC 6633, 100 μL of 10 mg/ml in DMSO, 24 h, read-out: Inhibition Diameter Zone BS; for antibacterial activity compared with reference drug: B. subtilis
Source text: as §1, §2

[6] = test system: Pseudomonas aeruginosa ATCC 27953; assay: as above; type: cell-based; conditions: for zone of inhibition at 10000 µg/mL: Pseudomonas aeruginosa, ATCC27953, P. aeruginosa ATCC 27953, 100 μL of 10 mg/ml in DMSO, 24 h, read-out: Inhibition Diameter Zone PA
Source text: as §1, §2

[7] = DPPH microplate radical scavenging antioxidant assay; type: biochemical; conditions: for IC50: DPPH, 30 min, mean ± SD (n = 3)
Description: The antioxidant activity of the synthesized compounds was measured in terms of hydrogen-donating or radical scavenging ability using the DPPH microplate-based method. Absorbance measurement was obtained using Microplate/cuvette reader (Spectramax M5, Molecular Devices, California, USA). Reference standard compound ascorbic acid was used as the positive control for this assay at concentrations ranging from 1.563 to 200 μg/mL. Test samples were prepared at a starting concentration of 200 μg/mL after mixing with 100 μl of 0.2 mM DPPH methanolic solution. A series of concentrations were tested for the samples in order to determine the 50% inhibitory concentration (IC50). Samples were incubated with DPPH in the dark for 30 min at room temperature (25° C.). The DPPH solution in methanol was prepared daily and stored in a flask covered with aluminum foil. DPPH radicals have an absorption maximum (λmax) at 515 nm, in which the absorbance values were measured and converted into percentage of antioxidant activity.
Methanolic DPPH solution without antioxidant was applied as control and background control was samples in methanol only. IC50 was determined using Graphpad Prism 7 (Graphpad Software Inc. CA, USA). The percentage inhibition was calculated by using the formula:
The assay was carried out in triplicate and performed as much as possible in an area protected against light. The data points are presented as the mean±standard deviation (SD) (n=3).

[8] = test system: trypsin; assay: Proteinase inhibitory activity (trypsin/casein); type: biochemical; conditions: for % Inhibition of proteinase activity: 250 μg/ml, mean ± SD (n = 3)
Description: For proteinase inhibitory activity, the reaction mixture (2 ml) contained 0.06 mg trypsin, 20 mM Tris HCl buffer (pH 7.4) and 1 ml test sample (250 μg/ml for each compound). The mixture was incubated for 5 min and then 1 ml of 0.8% (w/v) casein was added. The mixture was incubated for an additional 20 min. 1 ml of 10% perchloric acid was added to arrest the reaction. The cloudy suspension was centrifuged, and the absorbance of the supernatant was read at 280 nm. Reference standard compound aspirin was used as the positive control for this assay. The experiment was performed in triplicate. Percentage inhibition of […] was calculated by using the following formula:
[formula] where Acontrol is the absorbance of the control reaction and Atest is the absorbance of the control reaction with sample.

[9] = test system: Staphylococcus aureus ATCC 29213; assay: Agar well diffusion, primary antimicrobial screening; type: cell-based; conditions: for zone of inhibition at 10000 µg/mL: Staphylococcus aureus, ATCC29213, S. aureus ATCC 29213, 100 μL of 10 mg/ml in DMSO, 24 h, read-out: Inhibition Diameter Zone SA; for antibacterial activity compared with ciprofloxacin: S. aureus
Source text: as §1, §2

[10] = test system: tested microorganisms; assay: Agar well diffusion, summary over the tested microorganisms; type: cell-based; conditions: for antimicrobial activity compared with standard antimicrobials (ciprofloxacin and ketoconazole): against one or more microorganisms
Source text: as §1, §2

[11] = S. cerevisiae local isolate, 100 μL of 10 mg/ml in DMSO

SMILES | zone of inhibition at 10000 µg/mL [1] [mm] | zone of inhibition at 10000 µg/mL [2] [mm] | zone of inhibition at 10000 µg/mL [3] [mm] | zone of inhibition at 10000 µg/mL [5] [mm] | zone of inhibition at 10000 µg/mL [6] [mm] | melting point [°C] | IC50 [7] | % Inhibition of proteinase activity [8] [%] | antibacterial activity compared with ciprofloxacin [9] | antimicrobial activity compared with ketoconazole [4] | zone of inhibition at 10000 µg/mL [4, 11] [mm] | antibacterial activity compared with reference drug [5] | antimicrobial activity compared with standard antimicrobials (ciprofloxacin and ketoconazole) [10] | further results
Cc1ccc2oc(=O)c3c(c2c1)OC(N=CN(C)C)=C(C#N)C3c1ccc([N+](=O)[O-])cc1 (racemic) [Compound 7a, (±)-N′-(3-cyano-9-methyl-4-(4-nitrophenyl)-5-oxo-4H,5H-pyrano[3,2-c]chromen-2-yl)-N,N-dimethylformimidamide] | < 15 | < 15 | < 15 | < 15 | < 15 | 279 to 281 | — ((—): inactive (IC50 > 200 μg/mL)) | 31.99 ± 2.45 | – | – | – | – | – | zone of inhibition at 10000 µg/mL [4]: < 15 mm
CC(=O)N1CCN(c2ccc(OCC3COC(Cn4ccnc4)(c4ccc(Cl)cc4Cl)O3)cc2)CC1 (stereo not drawn) [Ketoconazole, ketoconazole, reference compound] | – | < 15 | < 15 | < 15 | < 15 | – | – | – | – | – | – | – | – | zone of inhibition at 10000 µg/mL [9]: < 15 mm
Cc1ccc2oc(=O)c(S(=O)(=O)Nc3ccc(S(=O)(=O)Nc4ncccn4)cc3)c(O)c2c1 [Compound 10d, 4-hydroxy-6-methyl-2-oxo-N-(4-(N-(pyrimidin-2-yl)sulfamoyl)phenyl)-2H-chromene-3-sulfonamide] | – | – | – | – | – | 207 to 209 | 112.19 ± 4.391 µg/mL (≈ 230 µM) | 36.84 ± 4.87 | higher than the control ciprofloxacin | higher than that of the corresponding control drug | 32 | higher than the reference drug | equal to or higher than the standard antimicrobials | antifungal activity compared with reference drug [1]: higher antifungal activity; antibacterial activity compared with ciprofloxacin [3]: comparable to ciprofloxacin; antimicrobial spectrum [10]: broad-spectrum activity against all of the tested microorganisms
Cc1ccc2oc(=O)c(S(=O)(=O)Nc3ccc(O)cc3)c(O)c2c1 [Compound 11d, 4-Hydroxy-N-(4-hydroxyphenyl)-6-methyl-2-oxo-2H-chromene-3-sulfonamide] | – | – | – | – | – | 253 to 254 | 4.30 ± 0.531 µg/mL (≈ 12.4 µM) | 20.15 ± 7.31 | higher than the control ciprofloxacin | higher than that of the corresponding control drug | 32 | comparable antibacterial activities to the standard | equal to or higher than the standard antimicrobials | antifungal activity compared with reference drug [1]: higher antifungal activity; antibacterial activity compared with ciprofloxacin [2]: higher antibacterial activity than ciprofloxacin; antibacterial activity compared with standard ([6]; P. aeruginosa): higher than that of the standard drugs; antioxidant activity ([7]; overview): particularly high antioxidant activity
O=c1oc2ccc(Cl)cc2c(O)c1S(=O)(=O)Nc1ccc(S(=O)(=O)Nc2ncccn2)cc1 [Compound 10c, 6-Chloro-4-hydroxy-2-oxo-N-(4-(N-(pyrimidin-2-yl)sulfamoyl)phenyl)-2H-chromene-3-sulfonamide] | – | – | – | – | – | 230 to 232 | 120.12 ± 4.629 µg/mL (≈ 236 µM) | – | higher than the control ciprofloxacin | higher than that of the corresponding control drug | 31 | higher than the reference drug | equal to or higher than the standard antimicrobials | antibacterial activity compared with ciprofloxacin [2]: comparable antibacterial potential; antibacterial activity compared with ciprofloxacin [3]: comparable to ciprofloxacin
Cc1ccc2oc(=O)c(S(=O)(=O)Nc3ccc(S(N)(=O)=O)cc3)c(O)c2c1 [Compound 10b, 4-Hydroxy-6-methyl-2-oxo-N-(4-sulfamoylphenyl)-2H-chromene-3-sulfonamide] | < 15 | < 15 | < 15 | < 15 | < 15 | 241 to 243 | 61.78 ± 2.719 µg/mL (≈ 151 µM) | 5.93 ± 2.11 | – | – | < 15 | – | – | zone of inhibition at 10000 µg/mL [9]: < 15 mm; growth inhibition zones ([10]; against one or more of the tested microorganisms): < 15 mm
CC(=O)c1ccc(NS(=O)(=O)c2c(O)c3cc(C)ccc3oc2=O)cc1 [Compound 11f, N-(4-acetylphenyl)-4-hydroxy-6-methyl-2-oxo-2H-chromene-3-sulfonamide] | < 15 | < 15 | – | – | < 15 | 231 to 232 | 35.36 ± 3.265 µg/mL (≈ 94.7 µM) | 2.0 ± 1.4 | – | – | < 15 | – | – | –
O=C(/C=C/c1ccc([N+](=O)[O-])cc1)c1ccc(NS(=O)(=O)c2c(O)c3cc(Cl)ccc3oc2=O)cc1 [Compound 12a, (E)-6-chloro-4-hydroxy-N-(4-(3-(4-nitrophenyl)acryloyl)phenyl)-2-oxo-2H-chromene-3-sulfonamide] | < 15 | < 15 | – | – | < 15 | 205 to 207 | — ((—): inactive (IC50 > 200 μg/mL)) | 62.14±4.87 | – | – | < 15 | – | – | in vitro anti-proteinase activity compared with aspirin [8]: more potent
